The text below walks through data of ChEMBL document CHEMBL1201862, “PubChem BioAssay data set” (2004).

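Where inhibition never reached the appropriate level, the endpoint shown equals the highest concentration tested. Otherwise, values were interpolated linearly from a five-concentration, 48-hour dose response in 96-well plates. GI50 marks 50% less growth.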 Calls of active or inactive are those of the source. No stated cut-off is given here; in the data, active = GI50 up to about 1.1 µM and inactive = higher. Where only a bound is given, the exact number is not on record here.

Some test systems named below: UACC-257; HCT-116; SN12C; OVCAR-8; A549; SNB-75; EKVX; NCI-H23; NCI-H226; COLO 205; CCRF-CEM; TK-10; NCI/ADR-RES; SK-MEL-2; SK-MEL-5; MDA-MB-435; HCT-15; M14; IGROV-1.
Test in all cases: NCI-60 cell line screen, 48 h

Take `Cc1nnc2sc(-c3ccc(N)cc3)nn12`: the GI50 in the test on UACC-257 was > 100 µM (inactive); in the test with HCT-116, > 100 µM (inactive); with SN12C, > 100 µM (inactive); in the test on OVCAR-8, > 100 µM (inactive); in the test with A549, > 100 µM (inactive); with SNB-75 it was 21.3 µM (inactive). The GI50 in the test on EKVX, in the test on NCI-H23, in the test with NCI-H226, in the test on COLO 205, in the test with CCRF-CEM and with TK-10 was > 100 µM (inactive) in each case. Further, the GI50 in the test with NCI/ADR-RES is > 100 µM (inactive); in the test with SK-MEL-2, > 100 µM (inactive); with SK-MEL-5, > 100 µM (inactive); with MDA-MB-435, > 100 µM (inactive); in the test on HCT-15, greater than 100 µM; in the test on M14, > 100 µM (inactive). Also, in the test with IGROV-1, the GI50 is > 100 µM (inactive).

For the compound `COCn1cnc2c(=O)n(-c3ccc(C)cc3)c(=S)n(-c3ccc(C)cc3)c21`, the GI50 is > 100 µM (inactive) with UACC-257; > 100 µM (inactive) in the test with HCT-116; > 100 µM (inactive) in the test with SN12C; > 100 µM (inactive) with OVCAR-8; > 100 µM (inactive) with A549; 6.98 µM (inactive) in the test on SNB-75. Further, the GI50 in the test on EKVX, with NCI-H23, in the test on NCI-H226, in the test with COLO 205, in the test on CCRF-CEM and with TK-10 was > 100 µM (inactive) throughout. Moreover, the GI50 with NCI/ADR-RES is > 100 µM (inactive); in the test on SK-MEL-2 it was > 100 µM (inactive); with SK-MEL-5 it was > 100 µM (inactive); in the test with MDA-MB-435, > 100 µM (inactive); in the test on HCT-15, greater than 100 µM; with M14, > 100 µM (inactive). Further, the GI50 with IGROV-1 was > 100 µM (inactive).

With `CCCCCCC(=O)c1ccc2ccccc2c1O`, the GI50 is 32.7 µM (inactive) in the test with UACC-257; 53 µM (inactive) in the test with HCT-116; 41.7 µM (inactive) with OVCAR-8; 43.1 µM (inactive) in the test with SNB-75; 25.4 µM (inactive) with EKVX; 92.5 µM (inactive) in the test with NCI-H23. In addition, the GI50 in the test with NCI-H226 is 40.1 µM (inactive); in the test with COLO 205, 66.1 µM (inactive); in the test on CCRF-CEM, 33.1 µM (inactive); with TK-10 it was > 100 µM (inactive); in the test with NCI/ADR-RES, 51.2 µM (inactive); in the test on SK-MEL-2, 23.8 µM (inactive). Moreover, the GI50 in the test with SK-MEL-5 is > 100 µM (inactive); with MDA-MB-435, 69.2 µM (inactive); in the test on HCT-15, 32.8 µM; with M14 it was 58.3 µM (inactive); in the test with IGROV-1, 27.4 µM (inactive).

Consider `Oc1nc2cc(Cl)ccc2nc1/C(=N\Nc1ccccc1)C(O)c1ccc(Cl)c(Cl)c1` (centres undefined), for which the GI50 in the test on UACC-257 was > 100 µM (inactive); in the test on HCT-116, > 100 µM (inactive); in the test with SN12C, 36.7 µM (inactive); in the test with OVCAR-8 it was > 100 µM (inactive); with A549, > 100 µM (inactive); in the test on SNB-75 it was > 100 µM (inactive). Further, the GI50 in the test with EKVX, in the test on NCI-H23, with NCI-H226, with COLO 205, in the test on CCRF-CEM and in the test on TK-10 was > 100 µM (inactive) each time. The GI50 in the test on SK-MEL-2 is > 100 µM (inactive); in the test on SK-MEL-5, > 100 µM (inactive); in the test with HCT-15 it was greater than 100 µM; in the test on M14, > 100 µM (inactive); in the test on IGROV-1, > 100 µM (inactive).

With `COc1ccc(OC)c(NC(=O)C(=O)C(C(C)=O)c2nc3ccc(Cl)cc3nc2O)c1` (centres undefined), the GI50 in the test with UACC-257, in the test with HCT-116, with SN12C, in the test on OVCAR-8, in the test with A549 and in the test on SNB-75 was > 50 µM (inactive) throughout. The GI50 in the test on EKVX is > 50 µM (inactive); in the test on NCI-H23, > 50 µM (inactive); with NCI-H226, > 50 µM (inactive); in the test on COLO 205, > 50 µM (inactive); with CCRF-CEM it was > 5 µM (inactive); with TK-10, > 50 µM (inactive). For the same compound, the GI50 with SK-MEL-2 is > 50 µM (inactive); in the test on SK-MEL-5 it was > 50 µM (inactive); in the test with HCT-15, greater than 50 µM; with M14, > 50 µM (inactive); in the test on IGROV-1 it was > 50 µM (inactive).

Regarding `COC(=O)c1cc(C(=O)OC)c(CC(=O)C(=O)NC2C3CC4CC(C3)CC2C4)nc1CC(=O)C(=O)NC1C2CC3CC(C2)CC1C3` (centres undefined), the GI50 in the test with UACC-257, in the test on HCT-116, in the test on SN12C, in the test on OVCAR-8, in the test with A549 and with SNB-75 was > 100 µM (inactive) throughout. For the same compound, the GI50 in the test on EKVX, in the test with NCI-H23, with NCI-H226, with COLO 205, in the test with CCRF-CEM and in the test on TK-10 was > 100 µM (inactive) in each case. For the same compound, the GI50 in the test with SK-MEL-2 was > 100 µM (inactive); in the test on SK-MEL-5 it was > 100 µM (inactive); with HCT-15 it was greater than 100 µM; in the test on M14, > 100 µM (inactive); in the test on IGROV-1, > 100 µM (inactive).

As to `COC1(OC)CC2CCCCC2=C(C)N1S(=O)(=O)c1ccccc1` (centres undefined), the GI50 with UACC-257, in the test with HCT-116, in the test with SN12C, in the test on OVCAR-8, with A549 and in the test with SNB-75 was > 100 µM (inactive) each time. For the same compound, the GI50 in the test with EKVX, in the test with NCI-H23, in the test on NCI-H226, with COLO 205, in the test on CCRF-CEM and in the test with TK-10 was > 100 µM (inactive) in each case. Further, the GI50 with SK-MEL-2 was > 100 µM (inactive); in the test with SK-MEL-5 it was > 100 µM (inactive); in the test on HCT-15 it was greater than 100 µM; with M14, > 100 µM (inactive); with IGROV-1, > 100 µM (inactive).

With `Cc1c(/C=N\NC(=S)N2CCN(C(=S)N/N=C\c3c(C)n(C)n(-c4ccccc4)c3=O)CC2)c(=O)n(-c2ccccc2)n1C`, the GI50 was 26.8 µM (inactive) with UACC-257; 49.5 µM (inactive) with HCT-116; 47.9 µM (inactive) in the test on A549; 21.8 µM (inactive) with SNB-75; 71.6 µM (inactive) with EKVX; 50.9 µM (inactive) with NCI-H23. Moreover, the GI50 in the test on NCI-H226 is > 100 µM (inactive); in the test with COLO 205, > 100 µM (inactive); with TK-10, 5.7 µM (inactive); with NCI/ADR-RES, > 100 µM (inactive); with SK-MEL-2 it was 13.1 µM (inactive); with SK-MEL-5, > 100 µM (inactive). Moreover, the GI50 is 4.52 µM (inactive) in the test on MDA-MB-435, 46.9 µM in the test on HCT-15 and 57 µM (inactive) with M14.

In the case of `Cc1csc2nc(-c3ccncc3)cn12`, the GI50 is > 100 µM (inactive) in the test on UACC-257; > 42.2 µM (inactive) with HCT-116; > 100 µM (inactive) with SN12C; > 100 µM (inactive) in the test with OVCAR-8; > 100 µM (inactive) with A549; > 100 µM (inactive) in the test on SNB-75. Also, the GI50 in the test on EKVX was > 59.7 µM (inactive); in the test with NCI-H23, > 100 µM (inactive); in the test with NCI-H226 it was > 100 µM (inactive); in the test on COLO 205, > 45.5 µM (inactive); with CCRF-CEM, > 42.1 µM (inactive); in the test with TK-10, > 100 µM (inactive). Moreover, the GI50 with SK-MEL-2 is > 100 µM (inactive); in the test on SK-MEL-5, > 100 µM (inactive); in the test on HCT-15, greater than 40.9 µM; with M14 it was > 68.2 µM (inactive); with IGROV-1, > 100 µM (inactive).

Regarding `CCOC(=O)c1c(NC(=O)OC)c(C#N)c2n1CCCCC2`, the GI50 in the test on UACC-257, with HCT-116, in the test on OVCAR-8, with SNB-75, in the test with EKVX and in the test with NCI-H23 was > 100 µM (inactive) each time. Moreover, the GI50 in the test on NCI-H226, with COLO 205, in the test with CCRF-CEM, with TK-10, with NCI/ADR-RES and in the test with SK-MEL-2 was > 100 µM (inactive) each time. For the same compound, the GI50 in the test on SK-MEL-5 was > 100 µM (inactive); in the test with MDA-MB-435 it was > 100 µM (inactive); in the test with HCT-15, greater than 100 µM; in the test with M14, > 100 µM (inactive); with IGROV-1, > 100 µM (inactive).

Turning to `CCN(CC)c1ccc(/N=N/c2ccc(-c3nc4cccn(C)c-4n3)cc2)cc1`, the GI50 in the test on UACC-257 was 9.14 µM (inactive); in the test with HCT-116, 3.61 µM (inactive); in the test with SN12C, 6.04 µM (inactive); with OVCAR-8, 10.3 µM (inactive); with A549 it was 6.62 µM (inactive); with SNB-75, 17 µM (inactive). The GI50 in the test on EKVX is 18.5 µM (inactive); with NCI-H23, 11.4 µM (inactive); in the test on NCI-H226 it was 19.8 µM (inactive); in the test with COLO 205, 14.3 µM (inactive); in the test on CCRF-CEM it was 3.75 µM (inactive); in the test on TK-10, 27.9 µM (inactive). The GI50 was 17.5 µM (inactive) in the test on SK-MEL-2; 4.8 µM (inactive) in the test with SK-MEL-5; 3.75 µM in the test on HCT-15; 9.33 µM (inactive) in the test on M14; 10.7 µM (inactive) in the test on IGROV-1.
